Assay results published in US20170342110A1, “GLYCOPEPTIDES AND USES THEREOF” (JAWAHARLAL NEHRU CENTRE FOR ADVANCED SCIENTIFIC RESEARCH …, priority 2014, published 2017).
Values after ≈ are worked out from the molar mass of the structure shown. Read-outs that look alike come from different tables or passages of the source.

Key:
[1] = system: Vancomycin intermediate resistant S. aureus; assay: Minimum inhibitory concentration, micro-dilution broth, VISA; type: cell-based; settings: Staphylococcus aureus, read-out: Minimum Inhibitory Concentration VISA
Method: (§1) All test compounds were assayed in a micro-dilution broth format. Stock solutions were made by serially diluting the compounds using autoclaved millipore water or broth media. The antibacterial activity of the compounds was determined againstmethicillin-resistant S. aureus (MRSA), vancomycin-intermediate-resistant S. aureus (VISA), vancomycin-sensitive E. faecium (VSE), vancomycin-resistant E. faecalis and vancomycin-resistant E. faecium (VRE). Bacteria, to be tested, were grown for about 10 h in the suitable media, MSSA, MRSA and VISA were grown in […] (about 1 g of beef extract, about 2 g of yeast extract, about 5 g of peptone and about 5 g of NaCl in about 1000 mL of sterile distilled water (pH-7)). For solid media, about 5% agar was used along with above mentioned composition. VSE and VRE were cultured in Brain Heart Infusion broth (Himedia). The bacterial samples were freeze dried and stored at −80° C. About 5 μL of these stocks were added to about 3 mL of the nutrient broth or Brain Heart Infusion broth and the culture was grown for about 6 h at about 37° C. prior to the experiments. This 6 h grown culture gives about 10^9 cfu/mL and this was determined by spread plating method. The 6 h grown culture was diluted to give effective cell concentration of about 10^5 cfu/mL, which was then used for determining MIC. Compounds were serially diluted, in sterile water (2-fold dilution is employed) in a way that the working concentration was about 10 μM for MRSA, and VSE while for VRE and VISA it was about 100 μM. About 50 μL of these serial dilutions were added to the wells of 96 well plate followed by the addition of about 150 μL of bacterial solution. The plates were then incubated at about 37° C., 150 rpm in the incubator and O.D at 620 nm was recorded at an interval of about 24 h using TECAN (Infinite series, M200 pro) Plate Reader. Each concentration had triplicate values and the whole experiment was done at least twice and the MIC value was determined by taking the average of triplicate O. D. values for each concentration and plotting it against concentration. The data was then subjected to sigmoidal fitting.

[2] = system: methicillin-resistant vancomycin intermediate S. aureus (MR-VISA); assay: Mouse neutropenic thigh infection model against MR-VISA; type: in vivo; settings: neutropenic female CD-1 mice, 12 mg/kg intravenously, 24 h post first treatment
Method: In-vivo activity against methicillin-resistant vancomycin intermediate S. aureus (MR-VISA):
Mouse Neutropenic Thigh Infection Model:
About six-week-old, female CD-1 mice (weight, ˜19-24 g) were used for the experiments. The mice were rendered neutropenic (˜100 neutrophils/ml) by injecting two doses of cyclophosphamide intraperitoneally 4 days (150 mg/kg) and 1 day (100 mg/kg) before the infection experiment. 50 μL of […] concentration of the bacterial inoculum (MR-VISA) was injected into the thigh. One hour after inoculation, animals were treated intravenously with saline, vancomycin, linezolid and compound 14 at 12 mg/kg body weight. At 24 h post first treatment, cohorts of animals were euthanized (using ether) and the thighs were collected aseptically. […] The dilutions of the homogenate were plated onto agar plates, which were incubated overnight at 37° C. The bacterial titer was expressed as log10 CFU/g of thigh weight.

[3] = system: Methicillin-resistant S. aureus (ATCC 33591); assay: Minimum inhibitory concentration, micro-dilution broth, MRSA; type: cell-based; settings: Staphylococcus aureus, read-out: Minimum Inhibitory Concentration MRSA
Method: as §1

[4] = system: Vancomycin-resistant E. faecalis (VanA, ATCC 51575); assay: Minimum inhibitory concentration, micro-dilution broth, VREs; type: cell-based; settings: Enterococcus faecalis, read-out: Minimum Inhibitory Concentration VREs
Method: as §1

[5] = system: Vancomycin-resistant E. faecium (ATCC 51559); assay: Minimum inhibitory concentration, micro-dilution broth, VREm; type: cell-based; settings: for MIC: Enterococcus faecium, read-out: Minimum Inhibitory Concentration VREm
Method: as §1

[6] = MRSA ATCC 33591, O.D. 620 nm at 24 h
[7] = ATCC51575, E. faecalis ATCC 51575, O.D. 620 nm at 24 h
[8] = ATCC51559, E. faecium ATCC 51559, O.D. 620 nm at 24 h

For `CCCCCCCC[n+]1ccc(CNC2(C)CC(OC3C(Oc4c5cc6cc4Oc4ccc(cc4Cl)C(O)C4NC(=O)[C@@H](NC(=O)[C@@H]6NC(=O)C(CC(N)=O)NC(=O)C(NC(=O)C(CC(C)C)NC)C(O)c6ccc(c(Cl)c6)O5)c5ccc(O)c(c5)-c5c(O)cc(O)cc5[C@@H](C(=O)NCCCNC(=O)C(O)C(O)C(O[C@H]5OC(CO)C(O)C(O)C5O)C(O)CO)NC4=O)OC(CO)C(O)C3O)OC(C)C2O)cc1` (some centres unmarked) [Compound 14], the MIC ([1]; O.D. 620 nm at 24 h) was 0.1 µM, the “reduction in bacterial count from the vehicle treated mice” value [2] was about 6.0 log10 CFU/g and the MIC [3, 6] was 0.09 µM. The MIC [4, 7] was 1.36 µM, the MIC [5, 8] was 0.09 µM and the “fold more active than vancomycin against VREm/VRE (MIC)” value ([5]; relative to vancomycin) was over 7500 fold.

With `CCCCCCCCCC[n+]1ccc(CNC2(C)CC(OC3C(Oc4c5cc6cc4Oc4ccc(cc4Cl)C(O)C4NC(=O)[C@@H](NC(=O)[C@@H]6NC(=O)C(CC(N)=O)NC(=O)C(NC(=O)C(CC(C)C)NC)C(O)c6ccc(c(Cl)c6)O5)c5ccc(O)c(c5)-c5c(O)cc(O)cc5[C@@H](C(=O)NCCCNC(=O)C(O)C(O)C(O[C@H]5OC(CO)C(O)C(O)C5O)C(O)CO)NC4=O)OC(CO)C(O)C3O)OC(C)C2O)cc1` (some centres unmarked) [Compound 15] the MIC ([1]; O.D. 620 nm at 24 h) was 0.09 µM, the MIC [3, 6] was 0.2 µM and the MIC [4, 7] was 1.3 µM. It also gave an MIC [5, 8] of 0.3 µM.

`CNC(CC(C)C)C(=O)NC1C(=O)N[C@H](CC(N)=O)C(=O)N[C@H]2C(=O)N[C@H]3C(=O)NC(C(=O)N[C@@H](C(=O)O)c4cc(O)cc(O)c4-c4cc3ccc4O)C(O)c3ccc(c(Cl)c3)Oc3cc2cc(c3OC2OC(CO)C(O)C(O)C2OC2CC(C)(N)C(O)C(C)O2)Oc2ccc(cc2Cl)C1O` (some centres unmarked) [Vancomycin, reference compound] was tested, and the MIC ([1]; 24 h) was 8 to 12 µM (≈ 11.6 to 17.4 µg/mL), the “in-vivo antibacterial activity compared to vehicle treated mice (saline), in words” value [2] was “minimal or no activity” and the MIC ([3]; 24 h) was 0.78 µM (≈ 1.13 µg/mL). It also gave an MIC ([4]; ATCC51575, 24 h) of 250 µM (≈ 362 µg/mL) and an MIC ([5]; ATCC51559, 24 h) of 750 µM (≈ 1090 µg/mL).

`CCCCCCCCCCCC[n+]1ccc(CNC2(C)CC(OC3C(Oc4c5cc6cc4Oc4ccc(cc4Cl)C(O)C4NC(=O)[C@@H](NC(=O)[C@@H]6NC(=O)C(CC(N)=O)NC(=O)C(NC(=O)C(CC(C)C)NC)C(O)c6ccc(c(Cl)c6)O5)c5ccc(O)c(c5)-c5c(O)cc(O)cc5[C@@H](C(=O)NCCCNC(=O)C(O)C(O)C(OC5OC(CO)C(O)C(O)C5O)C(O)CO)NC4=O)OC(CO)C(O)C3O)OC(C)C2O)cc1` (some centres unmarked) [Compound 16] was tested, and the MIC ([1]; O.D. 620 nm at 24 h) was 0.31 µM, the MIC [3, 6] was 0.28 µM and the MIC [4, 7] was 1.11 µM. For the same molecule, the MIC [5, 8] was 0.37 µM.

In the case of `CC(=O)NC[C@H]1CN(c2ccc(N3CCOCC3)c(F)c2)C(=O)O1` [linezolid], the “in-vivo antibacterial activity compared to vehicle treated mice (saline), in words” value [2] is reported as “minimal or no activity”.
